From US20120207704A1 (priority 2011, published 2012)

System: DU-145 cells
Format: cell-based, human

C=C1[C@@H](C)[C@H]2[C@H](Cc3ccccc3)NC(=O)[C@]23[C@H](OC(C)=O)/C=C/[C@@](C)(O)C(=O)[C@@H](C)C/C=C/[C@H]3[C@@H]1O [Cytochalasin-D]
Effect on cell migration: did not migrate
Relative Wound Density at 24 Hours, Mean: 3.3 ± 0.2
Relative Wound Density at 24 Hours, Percent Relative to Media: 4%
